Laboratory results: PubChem BioAssay AID330 (DTP/NCI, 2004)
Several values for one entry are separate records, joined by “and”; a condition that tells them apart may be missing. Identical values can stand only once. Toxic doses and inconclusive results are not listed.

Test system: P388 leukemia ip, CD2F1 mice, survival T/C
Assay: NCI In Vivo Anticancer Drug Screen. Data for tumor model P388 Leukemia (intraperitoneal) in CD2F1 (CDF1) mice
Settings: endpoint: median survival time, higher = longer survival
In short: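 Mice carrying the transplanted tumor received test compound or vehicle. Survival was recorded in each group, and the value is the treated-group measurement divided by that of the vehicle-treated control group.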

[1] = dose: 100.0 mg/kg/injection, schedule: Q04DX003 (ip), vehicle: Klucel (hydroxypropylcellulose) (HPC)
[2] = dose: 12.5 mg/kg/injection, schedule: Q01DX009 (ip), vehicle: saline with Tween-80
[3] = dose: 50.0 mg/kg/injection, schedule: Q01DX009 (ip), vehicle: Klucel (hydroxypropylcellulose) (HPC)
[4] = dose: 100.0 mg/kg/injection, schedule: Q01DX009 (ip), vehicle: Klucel (hydroxypropylcellulose) (HPC)
[5] = dose: 200.0 mg/kg/injection, schedule: Q01DX009 (ip), vehicle: Klucel (hydroxypropylcellulose) (HPC)
[6] = dose: 100.0 mg/kg/injection, schedule: Q01DX009 (ip), vehicle: saline
[7] = dose: 200.0 mg/kg/injection, schedule: Q01DX009 (ip), vehicle: saline
[8] = dose: 7.5 mg/kg/injection, schedule: Q01DX009 (ip), vehicle: saline
[9] = dose: 15.0 mg/kg/injection, schedule: Q01DX009 (ip), vehicle: saline
[10] = dose: 30.0 mg/kg/injection, schedule: Q01DX009 (ip), vehicle: saline
[11] = dose: 50.0 mg/kg/injection, schedule: Q01DX009 (ip), vehicle: saline
[12] = dose: 25.0 mg/kg/injection, schedule: Q01DX009 (ip), vehicle: Klucel (hydroxypropylcellulose) (HPC)
[13] = dose: 100.0 mg/kg/injection, schedule: Q04DX003 (ip), vehicle: saline with Tween-80
[14] = dose: 200.0 mg/kg/injection, schedule: Q04DX003 (ip), vehicle: saline with Tween-80
[15] = dose: 30.0 mg/kg/injection, schedule: Q01DX005 (ip), vehicle: saline with Tween-80
[16] = dose: 60.0 mg/kg/injection, schedule: Q01DX005 (ip), vehicle: saline with Tween-80

SMILES: CCOc1ccc(-c2nc(-c3ccc(N(C)C(=O)C(Cl)Cl)cc3)cs2)cc1OCC
- T/C [1]: 102 % of control
- T/C (dose: 200.0 mg/kg/injection, schedule: Q04DX003 (ip), vehicle: Klucel (hydroxypropylcellulose) (HPC)): 100 % of control
- T/C (dose: 400.0 mg/kg/injection, schedule: Q04DX003 (ip), vehicle: Klucel (hydroxypropylcellulose) (HPC)): 94 % of control

SMILES: O=Nc1sc(=S)n(N2CCCCC2)c1O
- T/C (dose: 50.0 mg/kg/injection, schedule: Q01DX005 (ip), vehicle: Klucel (hydroxypropylcellulose) (HPC)): 99 % of control
- T/C (dose: 100.0 mg/kg/injection, schedule: Q01DX005 (ip), vehicle: Klucel (hydroxypropylcellulose) (HPC)): 96 % of control

SMILES: CCCCCCCCCc1cccc(N2C(N)=NC(N)=NC2(C)C)c1
- T/C (dose: 7.5 mg/kg/injection, schedule: Q01DX005 (ip), vehicle: saline with Tween-80): 106 % of control

SMILES: Clc1c(Cl)c(C[P+](CCP(c2ccccc2)c2ccccc2)(c2ccccc2)c2ccccc2)c(Cl)c(Cl)c1C[P+](CCP(c1ccccc1)c1ccccc1)(c1ccccc1)c1ccccc1
- T/C [2]: 120 % of control

SMILES: CCn1c(=O)c2[nH]c(Cl)nc2n(CCOC)c1=O
- T/C [3]: 116 % of control
- T/C [4]: 96 % of control
- T/C [5]: 111 % of control

SMILES: COC1/C=C\CC2=CCCC=C2CC1 (stereo not given)
- T/C (dose: 25.0 mg/kg/injection, schedule: Q01DX009 (sc), vehicle: olive oil, sesame oil, peanut oil): 100 % of control
- T/C (dose: 50.0 mg/kg/injection, schedule: Q01DX009 (sc), vehicle: olive oil, sesame oil, peanut oil): 97 % of control
- T/C (dose: 100.0 mg/kg/injection, schedule: Q01DX009 (sc), vehicle: olive oil, sesame oil, peanut oil): 97 % of control
- T/C (dose: 200.0 mg/kg/injection, schedule: Q01DX009 (sc), vehicle: olive oil, sesame oil, peanut oil): 95 % of control

SMILES: c1ccc(-c2c3ccccc3c[n+]3ccccc23)cc1
- T/C (dose: 3.13 mg/kg/injection, schedule: Q01DX009 (ip), vehicle: Klucel (hydroxypropylcellulose) (HPC)): 106 % of control
- T/C (dose: 6.25 mg/kg/injection, schedule: Q01DX009 (ip), vehicle: Klucel (hydroxypropylcellulose) (HPC)): 92 % of control

SMILES: CNCC(OC)c1ccc(O)c(O)c1 (stereo not given)
- T/C [6]: 104 % of control and 107 % of control
- T/C [7]: 107 % of control and 118 % of control

SMILES: N=C(N)SCc1ccc(CSC(=N)N)s1
- T/C [8]: 107 % of control
- T/C [9]: 101 % of control
- T/C [10]: 117 % of control

SMILES: O=S(=O)(O)OCNc1cc(F)cc(F)c1
- T/C [11]: 96 % of control
- T/C [6]: 99 % of control
- T/C [7]: 101 % of control

SMILES: Cc1nc(C)n2ncnc2c1C
- T/C (dose: 100.0 mg/kg/injection, schedule: Q04DX003 (ip), vehicle: saline): 93 % of control
- T/C (dose: 200.0 mg/kg/injection, schedule: Q04DX003 (ip), vehicle: saline): 102 % of control
- T/C (dose: 400.0 mg/kg/injection, schedule: Q04DX003 (ip), vehicle: saline): 95 % of control

SMILES: C=Cc1ccccc1N/N=C(\Cl)C(=O)OCC
- T/C (dose: 100.0 mg/kg/injection, schedule: Q04DX002 (ip), vehicle: saline with Tween-80): 108 % of control
- T/C (dose: 200.0 mg/kg/injection, schedule: Q04DX002 (ip), vehicle: saline with Tween-80): 113 % of control

SMILES: CC(/C=N\Nc1ccc(Cl)c(Cl)c1)=N/NC(=O)C[n+]1ccccc1
- T/C (dose: 25.0 mg/kg/injection, schedule: Q04DX002 (ip), vehicle: saline): 108 % of control
- T/C (dose: 50.0 mg/kg/injection, schedule: Q04DX002 (ip), vehicle: saline): 104 % of control
- T/C (dose: 100.0 mg/kg/injection, schedule: Q04DX002 (ip), vehicle: saline): 102 % of control and 92 % of control

SMILES: COc1ccc2c(=O)c3cc([N+](=O)[O-])ccc3n(C)c2c1
- T/C (dose: 12.5 mg/kg/injection, schedule: Q01DX001 (ip), vehicle: saline with Tween-80): 100 % of control
- T/C (dose: 25.0 mg/kg/injection, schedule: Q01DX001 (ip), vehicle: saline with Tween-80): 97 % of control
- T/C (dose: 50.0 mg/kg/injection, schedule: Q01DX001 (ip), vehicle: saline with Tween-80): 94 % of control
- T/C (dose: 100.0 mg/kg/injection, schedule: Q01DX001 (ip), vehicle: saline with Tween-80): 94 % of control

SMILES: CN(C)CC1CC1N1c2ccccc2Sc2ccc(Cl)cc21 (stereo not given)
- T/C [12]: 99 % of control
- T/C [3]: 101 % of control and 112 % of control
- T/C [4]: 101 % of control and 112 % of control

SMILES: O=C1OCCC(O)=C1C=NCc1ccccc1
- T/C (dose: 25.0 mg/kg/injection, schedule: Q04DX003 (ip), vehicle: Klucel (hydroxypropylcellulose) (HPC)): 105 % of control
- T/C (dose: 50.0 mg/kg/injection, schedule: Q04DX003 (ip), vehicle: Klucel (hydroxypropylcellulose) (HPC)): 104 % of control
- T/C [1]: 99 % of control and 88 % of control

SMILES: CC(C)COP(=O)(OCC(C)C)OCC(C)C.CC(C)COP(=O)(OCC(C)C)OCC(C)C.CC(C)COP(=O)(OCC(C)C)OCC(C)C.CC(C)COP(=O)(OCC(C)C)OCC(C)C.O.O.[Co+2].[O-][Cl+3]([O-])([O-])O
- T/C (dose: 25.0 mg/kg/injection, schedule: Q04DX003 (ip), vehicle: saline with Tween-80): 94 % of control
- T/C (dose: 50.0 mg/kg/injection, schedule: Q04DX003 (ip), vehicle: saline with Tween-80): 99 % of control
- T/C [13]: 114 % of control and 116 % of control

SMILES: Clc1nc(-c2ccccc2)ns1
- T/C [12]: 86 % of control
- T/C [3]: 106 % of control
- T/C [4]: 102 % of control
- T/C [5]: 104 % of control

SMILES: COc1cc(C(=O)O)on1
- T/C (dose: 25.0 mg/kg/injection, schedule: Q01DX009 (ip), vehicle: saline): 103 % of control
- T/C [11]: 99 % of control
- T/C [6]: 89 % of control and 96 % of control

SMILES: CC1CC2Oc3ccc(Cl)cc3C(=O)N2O1 (stereo not given)
- T/C [8]: 115 % of control
- T/C [9]: 113 % of control
- T/C [10]: 104 % of control

SMILES: N#CC1(C#N)C(CCl)C1(C#N)C#N
- T/C [2]: 98 % of control
- T/C (dose: 25.0 mg/kg/injection, schedule: Q01DX009 (ip), vehicle: saline with Tween-80): 94 % of control
- T/C (dose: 50.0 mg/kg/injection, schedule: Q01DX009 (ip), vehicle: saline with Tween-80): 98 % of control
- T/C [11]: 102 % of control

SMILES: CC(C)(C)c1ccc(O)c(CNCc2ccccc2)c1
- T/C (dose: 25.0 mg/kg/injection, schedule: Q01DX005 (ip), vehicle: Klucel + Tween-80): 99 % of control
- T/C (dose: 50.0 mg/kg/injection, schedule: Q01DX005 (ip), vehicle: Klucel + Tween-80): 97 % of control
- T/C (dose: 100.0 mg/kg/injection, schedule: Q01DX005 (ip), vehicle: Klucel + Tween-80): 93 % of control
- T/C (dose: 200.0 mg/kg/injection, schedule: Q01DX005 (ip), vehicle: Klucel + Tween-80): 100 % of control

SMILES: O=[N+]([O-])c1cccn2cnnc12
- T/C [11]: 98 % of control
- T/C [6]: 87 % of control

SMILES: [Cl][Sn][Cl].c1cnc2c(c1)ccc1cccnc12
- T/C [13]: 97 % of control
- T/C [14]: 112 % of control

SMILES: COC(=O)c1cccc(OC)c1OC
- T/C (dose: 100.0 mg/kg/injection, schedule: Q01DX009 (ip), vehicle: saline with Tween-80): 109 % of control
- T/C (dose: 200.0 mg/kg/injection, schedule: Q01DX009 (ip), vehicle: saline with Tween-80): 100 % of control
- T/C (dose: 400.0 mg/kg/injection, schedule: Q01DX009 (ip), vehicle: saline with Tween-80): 109 % of control

SMILES: CC(O)CC1=Nc2c(nc(N)[nH]c2=O)N(C)C1 (stereo not given)
- T/C [13]: 98 % of control
- T/C [14]: 97 % of control
- T/C (dose: 400.0 mg/kg/injection, schedule: Q04DX003 (ip), vehicle: saline with Tween-80): 113 % of control

SMILES: O=C1OC(=O)C2C1C1c3ccccc3C2(O)c2ccccc21 (stereo not given)
- T/C [15]: 106 % of control
- T/C [16]: 100 % of control
- T/C (dose: 120.0 mg/kg/injection, schedule: Q01DX005 (ip), vehicle: saline with Tween-80): 94 % of control

SMILES: COc1ccc2c(c1)OC(C)(C)C(c1ccccc1)=C2c1ccc(O)cc1
- T/C (dose: 15.0 mg/kg/injection, schedule: Q01DX005 (ip), vehicle: saline with Tween-80): 97 % of control
- T/C [15]: 92 % of control
- T/C [16]: 95 % of control

SMILES: Fc1ccc(NC(=S)SCc2ccc(Cl)c(Cl)c2)c(F)c1
- T/C (dose: 50.0 mg/kg/injection, schedule: Q01DX009 (ip), vehicle: suspension in saline): 93 % of control
- T/C (dose: 100.0 mg/kg/injection, schedule: Q01DX009 (ip), vehicle: suspension in saline): 100 % of control
- T/C (dose: 200.0 mg/kg/injection, schedule: Q01DX009 (ip), vehicle: suspension in saline): 88 % of control

SMILES: C=CCOc1ccccc1N/N=C(\Cl)C(=O)OC
- T/C (dose: 12.5 mg/kg/injection, schedule: Q01DX005 (ip), vehicle: saline with Tween-80): 102 % of control
- T/C (dose: 25.0 mg/kg/injection, schedule: Q01DX005 (ip), vehicle: saline with Tween-80): 108 % of control
- T/C (dose: 50.0 mg/kg/injection, schedule: Q01DX005 (ip), vehicle: saline with Tween-80): 109 % of control and 114 % of control
